ChEMBL document CHEMBL1275407, “Treatment of scedosporiosis with voriconazole: clinical experience with 107 patients” (2008)
In brackets after ≈: the same amount, converted by molar mass.

Legend:
Assay type in all cases: functional
Scedosporium apiospermum [1] = test: Antifungal activity against Scedosporium apiospermum isolated from voriconazole treated scedosporiosis patient by broth microdilution method
Lomentospora prolificans [2] = test: Antifungal activity against Scedosporium prolificans isolated from voriconazole treated scedosporiosis patient by broth microdilution method
Scedosporium apiospermum [3] = test: Antifungal activity against Scedosporium apiospermum isolated from compound treated scedosporiosis patient by broth microdilution method
Lomentospora prolificans [4] = test: Antifungal activity against Scedosporium prolificans isolated from compound treated scedosporiosis patient by broth microdilution method

MIC50 (Scedosporium apiospermum [1]) [µg/mL]	MIC90 (Scedosporium apiospermum [1]) [µg/mL]	MIC50 (Lomentospora prolificans [2]) [µg/mL]	MIC90 (Lomentospora prolificans [2]) [µg/mL]	Compound	MIC50 (Scedosporium apiospermum [3]) [µg/mL]	MIC90 (Scedosporium apiospermum [3]) [µg/mL]	MIC50 (Lomentospora prolificans [4]) [µg/mL]	MIC90 (Lomentospora prolificans [4]) [µg/mL]
4 (≈ 4.33 µM)	> 8	8 (≈ 8.66 µM)	16 (≈ 17.3 µM)	C[C@@H]1[C@H](O)[C@@H](C)/C=C/C=C/C=C/C=C/C=C/C=C/C=C/[C@H](O[C@@H]2O[C@H](C)[C@@H](O)[C@H](N)[C@@H]2O)C[C@@H]2O[C@](O)(C[C@@H](O)C[C@@H](O)[C@H](O)CC[C@@H](O)C[C@@H](O)CC(=O)O[C@H]1C)C[C@H](O)[C@H]2C(=O)O [AMPHOTERICIN B]	–	–	–	–
–	–	–	–	C[C@@H](c1ncncc1F)[C@](O)(Cn1cncn1)c1ccc(F)cc1F [VORICONAZOLE]	0.25 (≈ 0.716 µM)	1 (≈ 2.86 µM)	4 (≈ 11.5 µM)	8 (≈ 22.9 µM)
0.5 (≈ 0.709 µM)	2 (≈ 2.83 µM)	16 (≈ 22.7 µM)	16 (≈ 22.7 µM)	CCC(C)n1ncn(-c2ccc(N3CCN(c4ccc(OCC5COC(Cn6cncn6)(c6ccc(Cl)cc6Cl)O5)cc4)CC3)cc2)c1=O (configuration not stated) [ITRACONAZOLE]	–	–	–	–
